In paper PMC11478212, “Antitumoral and Antiproliferative Potential of Synthetic Derivatives of Scorpion Peptide IsCT1 in an Oral Cavity Squamous Carcinoma Model” (Molecules, 2024):
Several values for one entry are separate records, joined by “and”; a condition that tells them apart may be missing. Identical values can stand only once. Entries after “also recorded” stand apart in the source; their conditions may differ. Like-named read-outs stand apart in the source and are kept apart here.

Tests used:
FN1 cells = assay: MTT cell viability; assay type: cell-based; settings: FN1 normal human fibroblasts, treatment 24 and 48 h (time of IC50 not given), absorbance 540 nm, N/IC50 = no IC50 for the tested concentrations, no toxicity
Description: (§1) Cell survival was assessed using an MTT assay. Tumor (SSC-9 and SSC-25) and normal cells (FN1 and J-774) were incubated in 96-well plates at a density of 10^5 cells/mL for 24 h. Subsequently, treatments were administered as described in Table 1 for 24 and 48 h. After the treatment period, the supernatant was aspirated and 100 μL of MTT at a concentration of 5 mg/mL (Calbiochem—Darmstadt, Germany) was added to the plate and incubated for 3 h at 37 °C with 5% CO2. Afterward, the content was removed and 200 μL of methanol was added to dissolve the formazan crystals. Absorbance was then measured at a wavelength of 540 nm using a microplate reader. The hemolysis assay was performed as previously reported.

J774 cells = assay: MTT cell viability; assay type: cell-based; settings: J774 normal macrophages, treatment 24 and 48 h (time of IC50 not given), absorbance 540 nm, N/IC50 = no IC50 for the tested concentrations, no toxicity
Description: as §1

SCC-25 cells = assay: MTT cell viability; assay type: cell-based; settings: treatment 24 and 48 h (time of IC50 not given), absorbance 540 nm, N/IC50 = no IC50 for the tested concentrations, no toxicity, read-out: IC50
Description: as §1

SCC-9 cells = assay: MTT cell viability; assay type: cell-based; settings: treatment 24 and 48 h (time of IC50 not given), absorbance 540 nm, N/IC50 = no IC50 for the tested concentrations, no toxicity, read-out: IC50
Description: as §1

SCC-25 tumor cells [1] = assay: CFSE-DA proliferation assay (flow cytometry); assay type: cell-based; settings: 24 h, IsCT-P and AC-AFPK-IsCT1 at IC50, other peptides at 100 µM, mean ± SD of three independent experiments
Description: (§2) Figure 2 Assessment of the cellular proliferative index was conducted using flow cytometry following a 24 h treatment with synthetic analogs of the IsCT1 peptide. The treatments were performed using the IC50 values obtained for the IsCT-P and AC-AFPK-IsCT1 peptides and at a concentration of 100 µM for the other peptides. (a) Representative histograms of the proliferative index were analyzed using WinMDI 5.0 software. Each color in the histogram represents a new cell population. (b) Bar graphs represent the mean ± SD of the proliferative index for SCC-9 tumor cells derived from three independent experiments. (c) Bar graphs display the mean ± SD of the proliferative index for SCC-25 tumor cells based on three independent experiments. (d) Bar graphs represent the mean ± SD of the proliferative index for normal FN1 cells from three independent experiments. (e) Bar graphs illustrate the mean ± SD of the proliferative index for normal J774 cells from three independent experiments. Statistical differences were determined using ANOVA and Tukey–Kramer multiple comparison tests. Significance levels are indicated as * p < 0.05, ** p < 0.01, and *** p < 0.001, with ‘ns’ denoting not significant.
(§3) Tumor (SSC-9 and SSC-25) and normal cells (FN1 and J-774) were plated in 24-well plates at a density of 10^5 cells/mL for 24 h. The treated and control groups were incubated with the carboxyfluorescein marker (CFSE-DA Thermo Fisher (Waltham, MA, USA), KITC34571). CFSE-DA was diluted in PBS + 0.1% human albumin and added to the cell-containing medium. After 24 h of treatment, the cells were trypsinized, transferred to a conical tube, and centrifuged at 1500 rpm for 5 min. The supernatant was discarded and the pellet was resuspended in 1 mL of 4% paraformaldehyde in PBS for 30 min. The cells were then centrifuged, the supernatant was discarded, and the pellet was resuspended in 200 μL of FACS buffer. Readings were performed on a FACScanto flow cytometer (BD, Franklin Lakes, NJ, USA) with the number of events set to 10,000 events, and histograms were acquired and analyzed using ModFit LT 5.0 software.

SCC-9 tumor cells = assay: CFSE-DA proliferation assay (flow cytometry); assay type: cell-based; settings: 24 h, IsCT-P and AC-AFPK-IsCT1 at IC50, other peptides at 100 µM, mean ± SD of three independent experiments
Description: as §2, §3

normal FN1 cells = assay: CFSE-DA proliferation assay (flow cytometry); assay type: cell-based, human; settings: 24 h, IsCT-P and AC-AFPK-IsCT1 at IC50, other peptides at 100 µM, mean ± SD of three independent experiments
Description: as §2, with “(e) Bar graphs illustrate the mean ± SD of the proliferative index for normal J774 cells from three independent experiments.” left out, “Significance levels are indicated as * p < 0.05, ** p < 0.01, and *** p < 0.001, with ‘ns’ denoting not significant.” left out
Tumor (SSC-9 and SSC-25) and normal cells (FN1 and J-774) were plated in 24-well plates at a density of 10^5 cells/mL for 24 h. […] Readings were performed on a FACScanto flow cytometer (BD, Franklin Lakes, NJ, USA) with the number of events set to 10,000 events, and histograms were acquired and analyzed using ModFit LT 5.0 software.

SCC-25 tumor cells [2] = assay: Cell cycle phase and DNA fragmentation analysis (flow cytometry); assay type: cell-based; settings: 24 h, IsCT-P and AC-AFPK-IsCT1 at IC50, others 100 µM
Description: Figure 3 Analysis of cell cycle phases following a 24 h treatment with synthetic analogs of IsCT1 peptides. The indicated cells were treated at the IC50 values obtained for the IsCT-P and AC-AFPK-IsCT1 peptides and at a concentration of 100 µM for the other peptides. (a) Representative histograms of cell distribution across cell cycle phases; (b) bar graph showing the correlation of the effect on cell cycle and fragmented DNA, expressed as the mean ± SD of three independent SCC-9 tumor cell experiments; (c) bar graph showing the correlation of the effect on cell cycle and fragmented DNA, expressed as the mean ± SD of three independent experiments on SCC-25 tumor cells; (d) bar graph showing the correlation of the effect on cell cycle and fragmented DNA, expressed as the mean ± SD of three independent experiments of normal FN1 cells; (e) bar graph showing the correlation of the effect on cell cycle and fragmented DNA, expressed as the mean ± SD of three independent experiments of normal J774 cells. Statistical differences were obtained using ANOVA and Tukey–Kramer multiple comparison tests. * p < 0.05, ** p < 0.01, and *** p < 0.001 denote significance. ns = not significant.
Tumor (SSC-9 and SSC-25) and normal cells (FN1 and J-774) were subjected to treatment for 24 h at the peptides’ IC50 concentrations. Treated and control cells were trypsinized and centrifuged at 1200 rpm for 5 min. The resulting pellet was resuspended in 1 mL of cold buffer, followed by the addition of 3 mL of absolute ethanol. Samples were stored at −20 °C for 24 h. The samples were then centrifuged at 1500 rpm for 10 min and resuspended in 200 μL of FACS buffer containing 0.1% Triton X-100 (Sigma-Aldrich, St. Louis, MO, USA), 50 μg/mL propidium iodide (Sigma-Aldrich), and 1 µL of RNAse (200×). This mixture was kept at room temperature and protected from light for 30 min. The samples were then transferred to cytometry tubes and analyzed using a FACScanto flow cytometer (BD) with 10,000 events, and histograms were acquired and analyzed using ModFit LT 5.0 software.

Substance | IC50 (FN1 cells; read-out: IC50) | IC50 (J774 cells) | IC50 (SCC-25 cells) | IC50 (SCC-9 cells) [µM] | decrease in the proliferative index (SCC-25 tumor cells [1]) [%] | reduction in the proliferative index (SCC-9 tumor cells) [%] | reduction in the proliferative index (normal FN1 cells) [%] | fragmented DNA (SCC-25 tumor cells [2]) [%] | IC50 (FN1 cells)
H-ILKKIWKPIKKLF-NH2 [IsCT-P] | 80.3 µM and 80.4 µM | N/IC50 | 81.3 µM | 96.5 | 61.1 ± 2.8 | 61.8 ± 8.7 | 37.6 ± 3.9 | 32.4 | 
Ac-ALGKFWPKIKSLF-NH2 [AC-AFPK-IsCT1] |  | N/IC50 | 84.4 µM and 84.5 µM | 90.5 | 40.9 ± 2.5 | 61.6 ± 1.7 |  | 16.5 | did not exhibit cytotoxic effects; also recorded: N/IC50
